Experimental data reported in US20240132431A1, “METHOD FOR ALKYLATING ACIDIC FUNCTIONAL GROUP” (Chugai Seiyaku Kabushiki Kaisha, priority 2021, published 2024).
One block for each compound: values may come before it.

Molecular target: T1, Bcl-2 protein (Recombinant Human Bcl-2 Protein) (Homo sapiens, UniProt P10415)
T1 construct: purchased Novus NBP2-34889
Test: Binding evaluation of mixture library compounds to Bcl-2 using AS-MS (affinity selection mass spectrometry)
Settings: AS-MS, mixture library, Bcl-2, ASMS Ratio(%)=(A−C)/B×100; for ASMS ratio (%) n = 1: replicate n = 1; for ASMS ratio (%) n = 2: replicate n = 2
Outline: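 Affinity selection MS: Bcl-2 20 μM + 1200-cpd mixture, […]/cpd, Tris pH 7.4 buffer w/ Tween-20, DTT; 1 h 23° C dark; P-2 spin SEC; MeCN/MeOH extraction; RP LC/MS. ASMS Ratio(%) = (A−C)/B×100.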

T1 sequence (P10415 whole entry): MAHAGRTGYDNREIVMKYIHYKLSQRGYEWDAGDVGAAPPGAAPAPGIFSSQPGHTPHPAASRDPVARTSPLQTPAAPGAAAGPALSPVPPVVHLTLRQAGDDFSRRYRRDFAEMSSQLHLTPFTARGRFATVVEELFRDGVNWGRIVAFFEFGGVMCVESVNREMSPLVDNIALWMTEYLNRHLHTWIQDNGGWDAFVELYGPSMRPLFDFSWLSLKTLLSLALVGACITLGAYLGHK

SMILES: CCOc1cncc(-c2ccc(CN3CCN(c4ccc(C(=O)NS(=O)(=O)c5ccc(NCCSc6ccccc6)c([N+](=O)[O-])c5)nn4)CC3)cc2C)c1 [B2Q074-01]
ASMS ratio (%) n = 1: 18.8%
ASMS ratio (%) n = 2: 15.4%

SMILES: CCOc1cncc(-c2ccc(CN3CCN(c4ccc(C(=O)NS(=O)(=O)c5ccc(NCCSc6ccccc6)c([N+](=O)[O-])c5)nn4)CC3)c(CC)c2)c1 [B2Q076-01, 6-[4-[[4-(5-Ethoxypyridin-3-yl)-2-ethylphenyl]methyl]piperazin-1-yl]-N-[3-nitro-4-(2-phenylsulfanylethylamino)phenyl]sulfonylpyridazine-3-carboxamide]
ASMS ratio (%) n = 1: 0.0%

SMILES: CCOc1cncc(-c2ccc(CN3CCN(c4ccc(C(=O)NS(=O)(=O)c5ccc(NCCSc6ccccc6)c([N+](=O)[O-])c5)nn4)CC3)cc2F)c1 [B2Q078-01]
ASMS ratio (%) n = 1: 15.6%
ASMS ratio (%) n = 2: 12.1%

SMILES: CCOc1cncc(-c2cc(CN3CCN(c4ccc(C(=O)NS(=O)(=O)c5ccc(NCCSc6ccccc6)c([N+](=O)[O-])c5)nn4)CC3)cc(OCC)c2)c1 [B2Q082-01, 6-[4-[[3-Ethoxy-5-(5-ethoxypyridin-3-yl)phenyl]methyl]piperazin-1-yl]-N-[3-nitro-4-(2-phenylsulfanylethylamino)phenyl]sulfonylpyridazine-3-carboxamide]
ASMS ratio (%) n = 1: 21.3%
ASMS ratio (%) n = 2: 8.5%

SMILES: CCOc1cncc(-c2cc(CN3CCN(c4ccc(C(=O)NS(=O)(=O)c5ccc(NCCSc6ccccc6)c([N+](=O)[O-])c5)nn4)CC3)cc(OC(C)C)c2)c1 [B2Q084-01, 6-[4-[[3-(5-Ethoxypyridin-3-yl)-5-propan-2-yloxyphenyl]methyl]piperazin-1-yl]-N-[3-nitro-4-(2-phenylsulfanylethylamino)phenyl]sulfonylpyridazine-3-carboxamide]
ASMS ratio (%) n = 1: 12.6%
ASMS ratio (%) n = 2: −4.9%

SMILES: CCOc1cncc(-c2cc(OC)c(CN3CCN(c4ccc(C(=O)NS(=O)(=O)c5ccc(NCCSc6ccccc6)c([N+](=O)[O-])c5)nn4)CC3)c(OC)c2)c1 [B2Q086-01, 6-[4-[[4-(5-Ethoxypyridin-3-yl)-2,6-dimethoxyphenyl]methyl]piperazin-1-yl]-N-[3-nitro-4-(2-phenylsulfanylethylamino)phenyl]sulfonylpyridazine-3-carboxamide]
ASMS ratio (%) n = 1: −39.4%
ASMS ratio (%) n = 2: 0.0%

SMILES: CCOc1cncc(-c2cc(CN3CCN(c4ccc(C(=O)NS(=O)(=O)c5ccc(NCCSc6ccccc6)c([N+](=O)[O-])c5)nn4)CC3)cc(C(F)(F)F)c2)c1 [B2Q088-01, 6-[4-[[3-(5-Ethoxypyridin-3-yl)-5-(trifluoromethyl)phenyl]methyl]piperazin-1-yl]-N-[3-nitro-4-(2-phenylsulfanylethylamino)phenyl]sulfonylpyridazine-3-carboxamide]
ASMS ratio (%) n = 1: 13.8%
ASMS ratio (%) n = 2: 9.1%

SMILES: CCOc1cncc(-c2cc(CN3CCN(c4ccc(C(=O)NS(=O)(=O)c5ccc(NCCSc6ccccc6)c([N+](=O)[O-])c5)nn4)CC3)cc(OC(F)(F)F)c2)c1 [B2Q090-01, 6-[4-[[3-(5-Ethoxypyridin-3-yl)-5-(trifluoromethoxy)phenyl]methyl]piperazin-1-yl]-N-[3-nitro-4-(2-phenylsulfanylethylamino)phenyl]sulfonylpyridazine-3-carboxamide]
ASMS ratio (%) n = 1: 21.8%
ASMS ratio (%) n = 2: 13.2%

SMILES: CCOc1cncc(-c2ccc(CN3CCN(c4ccc(C(=O)NS(=O)(=O)c5ccc(NCCSc6ccccc6)c([N+](=O)[O-])c5)nn4)CC3)c3ccccc23)c1 [B2Q092-01]
ASMS ratio (%) n = 1: 10.4%
ASMS ratio (%) n = 2: 4.8%

SMILES: CCOc1cncc(-c2csc(CN3CCN(c4ccc(C(=O)NS(=O)(=O)c5ccc(NCCSc6ccccc6)c([N+](=O)[O-])c5)nn4)CC3)c2)c1 [B2Q094-01, 6-[4-[[4-(5-Ethoxypyridin-3-yl)thiophen-2-yl]methyl]piperazin-1-yl]-N-[3-nitro-4-(2-phenylsulfanylethylamino)phenyl]sulfonylpyridazine-3-carboxamide]
ASMS ratio (%) n = 1: 7.2%
ASMS ratio (%) n = 2: 2.5%

SMILES: CCOc1cccc(C#Cc2ccccc2CN2CCN(c3ccc(C(=O)NS(=O)(=O)c4ccc(NCCSc5ccccc5)c([N+](=O)[O-])c4)nn3)CC2)c1 [B2Q095-01]
ASMS ratio (%) n = 1: 19.9%
ASMS ratio (%) n = 2: 11.9%

Further lines, results first:

ASMS ratio (%) n = 1: 0.0%
ASMS ratio (%) n = 2: 0.0%
SMILES: CCOc1cccc(-c2ccc(CN3CCN(c4ccc(C(=O)NS(=O)(=O)c5ccc(NCCSc6ccccc6)c([N+](=O)[O-])c5)nn4)CC3)c(CC)c2)c1 [B2Q075-01, 6-[4-[[4-(3-Ethoxyphenyl)-2-ethylphenyl]methyl]piperazin-1-yl]-N-[3-nitro-4-(2-phenylsulfanylethylamino)phenyl]sulfonylpyridazine-3-carboxamide]

ASMS ratio (%) n = 1: 14.7%
ASMS ratio (%) n = 2: 17.2%
SMILES: CCOc1cccc(-c2ccc(CN3CCN(c4ccc(C(=O)NS(=O)(=O)c5ccc(NCCSc6ccccc6)c([N+](=O)[O-])c5)nn4)CC3)cc2F)c1 [B2Q077-01, 6-[4-[[4-(3-Ethoxyphenyl)-3-fluorophenyl]methyl]piperazin-1-yl]-N-[3-nitro-4-(2-phenylsulfanylethylamino)phenyl]sulfonylpyridazine-3-carboxamide]

ASMS ratio (%) n = 1: 17.6%
ASMS ratio (%) n = 2: 0.0%
SMILES: CCOc1cccc(-c2ccc(CN3CCN(c4ccc(C(=O)NS(=O)(=O)c5ccc(NCCSc6ccccc6)c([N+](=O)[O-])c5)nn4)CC3)c(OC)c2)c1 [B2Q079-01, 6-[4-[[4-(3-Ethoxyphenyl)-2-methoxyphenyl]methyl]piperazin-1-yl]-N-[3-nitro-4-(2-phenylsulfanylethylamino)phenyl]sulfonylpyridazine-3-carboxamide]

ASMS ratio (%) n = 1: 12.6%
ASMS ratio (%) n = 2: 3.6%
SMILES: CCOc1cncc(-c2ccc(CN3CCN(c4ccc(C(=O)NS(=O)(=O)c5ccc(NCCSc6ccccc6)c([N+](=O)[O-])c5)nn4)CC3)c(OC)c2)c1 [B2Q080-01, 6-[4-[[4-(5-Ethoxypyridin-3-yl)-2-methoxyphenyl]methyl]piperazin-1-yl]-N-[3-nitro-4-(2-phenylsulfanylethylamino)phenyl]sulfonylpyridazine-3-carboxamide]

ASMS ratio (%) n = 1: −4.8%
ASMS ratio (%) n = 2: 0.6%
SMILES: CCOc1cccc(-c2cc(CN3CCN(c4ccc(C(=O)NS(=O)(=O)c5ccc(NCCSc6ccccc6)c([N+](=O)[O-])c5)nn4)CC3)cc(OCC)c2)c1 [B2Q081-01, 6-[4-[[3-Ethoxy-5-(3-ethoxyphenyl)phenyl]methyl]piperazin-1-yl]-N-[3-nitro-4-(2-phenylsulfanylethylamino)phenyl]sulfonylpyridazine-3-carboxamide]

ASMS ratio (%) n = 2: 0.0%
SMILES: CCOc1cccc(-c2cc(CN3CCN(c4ccc(C(=O)NS(=O)(=O)c5ccc(NCCSc6ccccc6)c([N+](=O)[O-])c5)nn4)CC3)cc(OC(C)C)c2)c1 [B2Q083-01, 6-[4-[[3-(3-Ethoxyphenyl)-5-propan-2-yloxyphenyl]methyl]piperazin-1-yl]-N-[3-nitro-4-(2-phenylsulfanylethylamino)phenyl]sulfonylpyridazine-3-carboxamide]

ASMS ratio (%) n = 1: 14.9%
ASMS ratio (%) n = 2: 0.7%
SMILES: CCOc1cccc(-c2cc(OC)c(CN3CCN(c4ccc(C(=O)NS(=O)(=O)c5ccc(NCCSc6ccccc6)c([N+](=O)[O-])c5)nn4)CC3)c(OC)c2)c1 [B2Q085-01, 6-[4-[[4-(3-Ethoxyphenyl)-2,6-dimethoxyphenyl]methyl]piperazin-1-yl]-N-[3-nitro-4-(2-phenylsulfanylethylamino)phenyl]sulfonylpyridazine-3-carboxamide]

ASMS ratio (%) n = 1: 17.6%
ASMS ratio (%) n = 2: −2.1%
SMILES: CCOc1cccc(-c2cc(CN3CCN(c4ccc(C(=O)NS(=O)(=O)c5ccc(NCCSc6ccccc6)c([N+](=O)[O-])c5)nn4)CC3)cc(C(F)(F)F)c2)c1 [B2Q087-01, 6-[4-[[3-(3-Ethoxyphenyl)-5-(trifluoromethyl)phenyl]methyl]piperazin-1-yl]-N-[3-nitro-4-(2-phenylsulfanylethylamino)phenyl]sulfonylpyridazine-3-carboxamide]

ASMS ratio (%) n = 1: 25.0%
ASMS ratio (%) n = 2: 15.0%
SMILES: CCOc1cccc(-c2cc(CN3CCN(c4ccc(C(=O)NS(=O)(=O)c5ccc(NCCSc6ccccc6)c([N+](=O)[O-])c5)nn4)CC3)cc(OC(F)(F)F)c2)c1 [B2Q089-01, 6-[4-[[3-(3-Ethoxyphenyl)-5-(trifluoromethoxy)phenyl]methyl]piperazin-1-yl]-N-[3-nitro-4-(2-phenylsulfanylethylamino)phenyl]sulfonylpyridazine-3-carboxamide]

ASMS ratio (%) n = 1: 17.2%
ASMS ratio (%) n = 2: −5.0%
SMILES: CCOc1cccc(-c2ccc(CN3CCN(c4ccc(C(=O)NS(=O)(=O)c5ccc(NCCSc6ccccc6)c([N+](=O)[O-])c5)nn4)CC3)c3ccccc23)c1 [B2Q091-01, 6-[4-[[4-(3-Ethoxyphenyl)naphthalen-1-yl]methyl]piperazin-1-yl]-N-[3-nitro-4-(2-phenylsulfanylethylamino)phenyl]sulfonylpyridazine-3-carboxamide]

ASMS ratio (%) n = 2: 0.0%
SMILES: CCOc1cccc(-c2ccc(C(C)N3CCN(c4ccc(C(=O)NS(=O)(=O)c5ccc(NCCSc6ccccc6)c([N+](=O)[O-])c5)cc4)CC3)c(F)c2)c1 (stereo not shown) [B2Q099-01, 4-[4-[1-[4-(3-Ethoxyphenyl)-2-fluorophenyl]ethyl]piperazin-1-yl]-N-[3-nitro-4-(2-phenylsulfanylethylamino)phenyl]sulfonylbenzamide]

ASMS ratio (%) n = 1: 0.0%
ASMS ratio (%) n = 2: 10.7%
SMILES: CCOc1cncc(-c2ccc(C(C)N3CCN(c4ccc(C(=O)NS(=O)(=O)c5ccc(NCCSc6ccccc6)c([N+](=O)[O-])c5)cc4)CC3)c(F)c2)c1 (stereo not shown) [B2Q100-01, 4-[4-[1-[4-(5-Ethoxypyridin-3-yl)-2-fluorophenyl]ethyl]piperazin-1-yl]-N-[3-nitro-4-(2-phenylsulfanylethylamino)phenyl]sulfonylbenzamide]
